Test [1] relates to LDL cholesterol. Conditions: higher doses (1000-3000 mg/day); cited from earlier work.
The subject of test [2] is homocysteine. Description: Projected benefit on homocysteine level (Table 5). The class given is in vivo, patients. More on the design: key: “NC” indicating no change. Conditions: expected benefit, class symbol. An excerpt: (§1) The particular CVD-specific nutraceuticals and regimens herein disclosed were also designed to achieve a measurable benefit on lipid levels equivalent to those provided by many popular pharmaceutical drug therapies. The expected range of benefits (“NC” indicating no change) is projected as indicated below in Table 5. Given that all of the nutritional supplement ingredients used in the CVD-specific nutraceutical herein disclosed operate according to independent mechanisms, the cumulative effective on LDL cholesterol, HDL cholesterol, triglycerides and homocysteine levels would be additive and would not counteract each other or interfere with common CVD prescription pharmaceutical treatments.

Test [3] relates to HDL cholesterol. The note with it: low doses (500-1000 mg/day); cited from earlier work.
In test [4] the test system is triglycerides. Conditions: low doses (500-1000 mg/day); cited from earlier work.
Test [5] has as its system triglycerides. Put plainly: Projected benefit on triglyceride level (Table 5). Format: in vivo, patients. The note with it: expected range of benefits, CVD-specific nutraceutical regimen.
Excerpt: as §1

Test [6] relates to LDL cholesterol. Description: Projected benefit on LDL cholesterol level (Table 5). The class given is in vivo, patients. More on the design: key: “NC” indicating no change. Conditions: expected benefit, class symbol.
Excerpt: as §1

The subject of test [7] is HDL cholesterol. Put plainly: Projected benefit on HDL cholesterol level (Table 5). The note with it: expected range of benefits, CVD-specific nutraceutical regimen. The class given is in vivo, patients.
Excerpt: as §1

Consider `O=C(O)c1cccnc1` [Niacin], for which the “effect on LDL cholesterol” value in test [1] was “decrease LDL cholesterol modestly”. For the same compound, in test [2], the HOMOCYSTEINE result is recorded as “NC”. Besides, in test [3], the “effect on HDL cholesterol” value is “raise HDL cholesterol”. Moreover, the effect on triglycerides result in test [4] is “lower triglycerides”. Also, the TRIGLYCERIDES decrease in test [5] is 0-10%. Besides, in test [6], the LDL entry is listed as “NC”. Also, the HDL increase in test [7] is 5-10%.

The values are drawn from patent publication US20040009208A1, “Safe and effective nutritional supplement formulations and associated regimens adapted to prevent and/or treat targeted diseases or medical or health conditions, and related methods” (Vital Living, Inc., priority 2002, published 2004).
